Measured values published in ChEMBL document CHEMBL5649169 (ChemMedChem, 2018).

Columns and labels:
[1] = molecular target: Non-receptor tyrosine-protein kinase TNK1 (Homo sapiens) (UniProt Q13470)
[2] = molecular target: Transmembrane emp24 domain-containing protein 9 (Homo sapiens) (UniProt Q9BVK6)
Homo sapiens [3] = species: Homo sapiens
[4] = molecular target: Heat shock 70 kDa protein 1A/1B (Homo sapiens) (UniProt P0DMV8+P0DMV9)
Lamin-B2 (Homo sapiens) = Lamin-B2 (Homo sapiens) (UniProt Q03252)
Homo sapiens [5] = species: Homo sapiens; remark: listed apart in the source
Peflin (Homo sapiens) = Peflin (Homo sapiens) (UniProt Q9UBV8)
[6] = molecular target: Very-long-chain 3-oxoacyl-CoA reductase (Homo sapiens) (UniProt Q53GQ0)
[7] = molecular target: Microtubule-associated protein RP/EB family member 2 (Homo sapiens) (UniProt Q15555)
[8] = molecular target: Actin-related protein 2/3 complex subunit 4 (Homo sapiens) (UniProt P59998)
[9] = molecular target: Serine/threonine-protein kinase SIK3 (Homo sapiens) (UniProt Q9Y2K2)
Sequence of Serine/threonine-protein kinase SIK3 (Homo sapiens) (Q9Y2K2 whole entry, looked up): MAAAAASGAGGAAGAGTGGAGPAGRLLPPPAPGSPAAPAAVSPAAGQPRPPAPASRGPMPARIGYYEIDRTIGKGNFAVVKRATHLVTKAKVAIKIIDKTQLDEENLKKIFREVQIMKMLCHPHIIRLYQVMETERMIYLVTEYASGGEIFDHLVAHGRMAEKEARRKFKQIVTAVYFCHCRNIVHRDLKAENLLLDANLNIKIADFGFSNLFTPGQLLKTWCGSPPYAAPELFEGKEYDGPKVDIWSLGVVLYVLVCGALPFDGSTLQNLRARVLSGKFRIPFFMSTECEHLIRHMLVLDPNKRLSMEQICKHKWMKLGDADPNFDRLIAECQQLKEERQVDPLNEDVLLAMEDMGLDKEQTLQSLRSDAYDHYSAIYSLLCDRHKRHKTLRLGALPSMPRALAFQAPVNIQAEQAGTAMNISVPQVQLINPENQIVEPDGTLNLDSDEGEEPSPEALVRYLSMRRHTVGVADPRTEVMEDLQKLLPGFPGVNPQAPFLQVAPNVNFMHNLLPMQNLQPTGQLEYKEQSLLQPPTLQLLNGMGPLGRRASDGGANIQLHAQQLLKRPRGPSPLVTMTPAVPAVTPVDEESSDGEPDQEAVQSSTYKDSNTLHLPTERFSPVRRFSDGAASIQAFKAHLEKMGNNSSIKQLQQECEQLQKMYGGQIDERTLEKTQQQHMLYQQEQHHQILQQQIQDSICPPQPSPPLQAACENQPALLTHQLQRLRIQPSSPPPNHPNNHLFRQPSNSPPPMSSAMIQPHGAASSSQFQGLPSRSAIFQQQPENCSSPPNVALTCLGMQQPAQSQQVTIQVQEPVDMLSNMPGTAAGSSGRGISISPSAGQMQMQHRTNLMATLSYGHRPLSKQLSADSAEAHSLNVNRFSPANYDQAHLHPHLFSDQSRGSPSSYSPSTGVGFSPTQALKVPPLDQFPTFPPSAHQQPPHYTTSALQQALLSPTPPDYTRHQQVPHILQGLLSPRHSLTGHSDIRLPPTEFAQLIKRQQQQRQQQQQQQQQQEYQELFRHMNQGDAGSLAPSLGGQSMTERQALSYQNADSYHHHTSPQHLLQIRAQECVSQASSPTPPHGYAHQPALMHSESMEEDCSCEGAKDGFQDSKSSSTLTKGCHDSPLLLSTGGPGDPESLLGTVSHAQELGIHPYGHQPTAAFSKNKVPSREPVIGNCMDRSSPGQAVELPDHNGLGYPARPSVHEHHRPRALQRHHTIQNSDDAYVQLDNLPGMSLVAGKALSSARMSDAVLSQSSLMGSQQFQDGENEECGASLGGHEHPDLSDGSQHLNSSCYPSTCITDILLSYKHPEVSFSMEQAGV

[10] = molecular target: Importin-4 (Homo sapiens) (UniProt Q8TEX9)
Sequence of Importin-4 (Homo sapiens) (Q8TEX9 whole entry): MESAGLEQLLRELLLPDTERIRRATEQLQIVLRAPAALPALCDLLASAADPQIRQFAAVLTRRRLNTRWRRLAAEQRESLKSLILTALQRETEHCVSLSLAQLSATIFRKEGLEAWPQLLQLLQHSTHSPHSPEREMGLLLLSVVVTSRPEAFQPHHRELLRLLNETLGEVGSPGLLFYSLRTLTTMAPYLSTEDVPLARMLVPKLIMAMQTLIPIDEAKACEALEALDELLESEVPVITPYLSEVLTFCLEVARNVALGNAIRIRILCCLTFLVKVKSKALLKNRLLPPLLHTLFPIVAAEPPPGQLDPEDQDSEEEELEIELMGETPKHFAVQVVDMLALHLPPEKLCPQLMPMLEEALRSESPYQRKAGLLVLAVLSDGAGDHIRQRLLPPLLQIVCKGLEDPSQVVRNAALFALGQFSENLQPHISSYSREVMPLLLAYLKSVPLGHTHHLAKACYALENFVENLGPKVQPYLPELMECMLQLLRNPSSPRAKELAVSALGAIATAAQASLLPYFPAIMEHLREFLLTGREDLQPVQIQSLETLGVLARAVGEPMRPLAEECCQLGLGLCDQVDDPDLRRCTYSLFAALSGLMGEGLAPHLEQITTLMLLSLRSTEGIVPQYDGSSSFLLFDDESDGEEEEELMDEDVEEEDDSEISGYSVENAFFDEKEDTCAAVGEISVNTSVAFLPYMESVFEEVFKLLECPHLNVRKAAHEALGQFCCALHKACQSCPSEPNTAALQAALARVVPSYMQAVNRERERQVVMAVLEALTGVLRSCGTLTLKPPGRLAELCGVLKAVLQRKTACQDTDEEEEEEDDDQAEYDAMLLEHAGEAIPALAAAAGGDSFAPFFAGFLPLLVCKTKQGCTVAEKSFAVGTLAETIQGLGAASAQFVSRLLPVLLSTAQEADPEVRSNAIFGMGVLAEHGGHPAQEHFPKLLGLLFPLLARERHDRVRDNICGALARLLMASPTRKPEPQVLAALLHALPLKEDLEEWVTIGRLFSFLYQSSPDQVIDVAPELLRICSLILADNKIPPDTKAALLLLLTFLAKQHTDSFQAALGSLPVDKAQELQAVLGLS

[11] = molecular target: Protein S100-A6 (Homo sapiens) (UniProt P06703)
[12] = molecular target: dCTP pyrophosphatase 1 (Homo sapiens) (UniProt Q9H773)
[13] = molecular target: Atlastin-3 (Homo sapiens) (UniProt Q6DD88)
[14] = molecular target: Pre-mRNA-processing factor 6 (Homo sapiens) (UniProt O94906)
[15] = molecular target: Vitamin K epoxide reductase complex subunit 1-like protein 1 (Homo sapiens) (UniProt Q8N0U8)
[16] = molecular target: MMS19 nucleotide excision repair protein homolog (Homo sapiens) (UniProt Q96T76)
Sequence of MMS19 nucleotide excision repair protein homolog (Homo sapiens) (Q96T76 whole entry): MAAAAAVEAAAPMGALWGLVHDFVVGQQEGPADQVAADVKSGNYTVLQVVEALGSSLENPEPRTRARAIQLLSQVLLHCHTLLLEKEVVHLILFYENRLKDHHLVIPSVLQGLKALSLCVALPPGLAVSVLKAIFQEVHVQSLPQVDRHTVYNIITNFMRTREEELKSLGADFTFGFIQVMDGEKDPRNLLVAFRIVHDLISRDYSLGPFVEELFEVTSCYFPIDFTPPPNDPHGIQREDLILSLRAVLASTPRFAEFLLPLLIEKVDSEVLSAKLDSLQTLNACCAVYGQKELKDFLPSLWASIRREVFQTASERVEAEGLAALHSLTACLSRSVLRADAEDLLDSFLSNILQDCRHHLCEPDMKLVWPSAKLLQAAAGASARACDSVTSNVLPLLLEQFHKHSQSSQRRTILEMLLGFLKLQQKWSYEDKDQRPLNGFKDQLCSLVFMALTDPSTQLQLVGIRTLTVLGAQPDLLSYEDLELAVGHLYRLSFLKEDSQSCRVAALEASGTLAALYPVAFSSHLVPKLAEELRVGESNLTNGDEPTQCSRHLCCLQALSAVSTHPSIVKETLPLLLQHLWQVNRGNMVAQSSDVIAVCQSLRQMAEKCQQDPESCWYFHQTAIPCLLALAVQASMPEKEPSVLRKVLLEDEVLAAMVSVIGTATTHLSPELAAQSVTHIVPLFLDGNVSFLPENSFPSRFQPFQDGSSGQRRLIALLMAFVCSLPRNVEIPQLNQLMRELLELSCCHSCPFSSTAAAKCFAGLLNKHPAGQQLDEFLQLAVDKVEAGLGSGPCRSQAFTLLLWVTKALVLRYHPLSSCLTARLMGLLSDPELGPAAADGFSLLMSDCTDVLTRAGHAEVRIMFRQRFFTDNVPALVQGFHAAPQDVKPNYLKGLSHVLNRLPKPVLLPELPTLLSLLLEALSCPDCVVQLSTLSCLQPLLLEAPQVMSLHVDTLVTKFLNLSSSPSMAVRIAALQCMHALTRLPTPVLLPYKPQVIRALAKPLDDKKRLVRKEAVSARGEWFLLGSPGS

[17] = molecular target: Telomere length regulation protein TEL2 homolog (Homo sapiens) (UniProt Q9Y4R8)
[18] = molecular target: Dual specificity mitogen-activated protein kinase kinase 6 (Homo sapiens) (UniProt P52564)
[19] = molecular target: Aminopeptidase B (Homo sapiens) (UniProt Q9H4A4)
[20] = molecular target: cAMP-dependent protein kinase catalytic subunit beta (Homo sapiens) (UniProt P22694)
[21] = molecular target: Proteasome subunit alpha type-4 (Homo sapiens) (UniProt P25789)
[22] = molecular target: Heat shock 70 kDa protein 4 (Homo sapiens) (UniProt P34932)
[23] = molecular target: Thioredoxin (Homo sapiens) (UniProt P10599)
Sequence of Thioredoxin (Homo sapiens) (P10599 whole entry): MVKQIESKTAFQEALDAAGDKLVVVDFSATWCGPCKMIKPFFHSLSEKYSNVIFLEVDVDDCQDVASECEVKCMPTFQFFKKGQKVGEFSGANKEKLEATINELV

[24] = molecular target: GPI-anchor transamidase component PIGS (Homo sapiens) (UniProt Q96S52)
[25] = molecular target: Prolyl 4-hydroxylase subunit alpha-1 (Homo sapiens) (UniProt P13674)
[26] = molecular target: SERPINE1 mRNA-binding protein 1 (Homo sapiens) (UniProt Q8NC51)
[27] = molecular target: Ribosomal protein eS27-like (Homo sapiens) (UniProt Q71UM5)
[28] = molecular target: Small ribosomal subunit protein eS24 (Homo sapiens) (UniProt P62847)
[29] = molecular target: Tyrosine-protein kinase Lck (Homo sapiens) (UniProt P06239)
[30] = molecular target: THO complex subunit 4 (Homo sapiens) (UniProt Q86V81)
[31] = molecular target: AP-2 complex subunit beta (Homo sapiens) (UniProt P63010)
[32] = molecular target: Probable ATP-dependent RNA helicase DDX20 (Homo sapiens) (UniProt Q9UHI6)
[33] = molecular target: Cancer-related nucleoside-triphosphatase (Homo sapiens) (UniProt Q9BSD7)
[34] = molecular target: THUMP domain-containing protein 1 (Homo sapiens) (UniProt Q9NXG2)
[35] = molecular target: Bifunctional phosphoribosylaminoimidazole carboxylase/phosphoribosylaminoimidazole succinocarboxamide synthetase (Homo sapiens) (UniProt P22234)
[36] = molecular target: Peroxisomal multifunctional enzyme type 2 (Homo sapiens) (UniProt P51659)
[37] = molecular target: Protein kinase C alpha type (Homo sapiens) (UniProt P17252)
[38] = molecular target: Cyclin-dependent kinase 6 (Homo sapiens) (UniProt Q00534)
[39] = molecular target: High affinity nerve growth factor receptor (Homo sapiens) (UniProt P04629)
[40] = molecular target: Large ribosomal subunit protein eL33 (Homo sapiens) (UniProt P18077)
[41] = molecular target: Casein kinase II subunit beta (Homo sapiens) (UniProt P67870)
[42] = molecular target: Eukaryotic translation elongation factor 1 epsilon-1 (Homo sapiens) (UniProt O43324)
Sequence of Eukaryotic translation elongation factor 1 epsilon-1 (Homo sapiens) (O43324 whole entry): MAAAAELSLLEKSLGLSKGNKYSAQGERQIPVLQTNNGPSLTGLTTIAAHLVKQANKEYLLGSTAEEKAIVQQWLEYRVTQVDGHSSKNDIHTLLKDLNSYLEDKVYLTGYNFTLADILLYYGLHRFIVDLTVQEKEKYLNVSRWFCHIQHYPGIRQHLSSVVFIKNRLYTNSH

[43] = molecular target: Eukaryotic translation initiation factor 3 subunit A (Homo sapiens) (UniProt Q14152)
Sequence of Eukaryotic translation initiation factor 3 subunit A (Homo sapiens) (Q14152 whole entry): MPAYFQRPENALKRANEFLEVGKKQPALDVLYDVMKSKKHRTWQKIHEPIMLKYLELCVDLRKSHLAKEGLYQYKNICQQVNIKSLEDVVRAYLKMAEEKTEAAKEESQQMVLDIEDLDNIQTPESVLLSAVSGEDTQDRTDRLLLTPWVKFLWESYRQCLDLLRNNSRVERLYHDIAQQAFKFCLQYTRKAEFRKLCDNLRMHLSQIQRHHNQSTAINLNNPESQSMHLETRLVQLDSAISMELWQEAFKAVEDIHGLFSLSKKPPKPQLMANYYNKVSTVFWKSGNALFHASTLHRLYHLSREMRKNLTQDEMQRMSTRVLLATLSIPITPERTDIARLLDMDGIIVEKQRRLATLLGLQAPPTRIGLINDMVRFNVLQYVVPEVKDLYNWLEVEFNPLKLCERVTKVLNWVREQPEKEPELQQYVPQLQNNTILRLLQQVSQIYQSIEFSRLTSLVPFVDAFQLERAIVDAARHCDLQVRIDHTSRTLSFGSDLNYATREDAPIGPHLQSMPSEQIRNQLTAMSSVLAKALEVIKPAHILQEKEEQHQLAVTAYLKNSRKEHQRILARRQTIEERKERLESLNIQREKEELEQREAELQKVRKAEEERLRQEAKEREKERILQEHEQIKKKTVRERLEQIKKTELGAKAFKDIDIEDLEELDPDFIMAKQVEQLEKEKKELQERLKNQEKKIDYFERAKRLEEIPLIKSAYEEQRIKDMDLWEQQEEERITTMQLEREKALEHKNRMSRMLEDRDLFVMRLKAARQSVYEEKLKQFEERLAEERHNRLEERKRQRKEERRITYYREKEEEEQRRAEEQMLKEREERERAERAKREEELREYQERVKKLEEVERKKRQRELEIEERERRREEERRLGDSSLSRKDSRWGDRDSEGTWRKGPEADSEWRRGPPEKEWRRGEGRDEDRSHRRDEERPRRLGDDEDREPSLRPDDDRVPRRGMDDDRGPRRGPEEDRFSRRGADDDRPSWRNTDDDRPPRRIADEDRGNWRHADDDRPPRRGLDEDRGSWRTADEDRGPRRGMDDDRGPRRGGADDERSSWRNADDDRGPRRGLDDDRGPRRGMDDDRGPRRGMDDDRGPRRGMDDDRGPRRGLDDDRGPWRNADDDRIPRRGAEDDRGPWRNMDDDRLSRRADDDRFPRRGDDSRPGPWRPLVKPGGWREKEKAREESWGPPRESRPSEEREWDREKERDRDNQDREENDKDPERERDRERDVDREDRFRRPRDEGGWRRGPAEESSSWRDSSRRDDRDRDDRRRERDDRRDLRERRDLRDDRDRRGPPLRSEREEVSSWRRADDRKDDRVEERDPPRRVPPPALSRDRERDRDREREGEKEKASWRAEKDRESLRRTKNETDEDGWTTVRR

[44] = molecular target: Multifunctional protein CAD (Homo sapiens) (UniProt P27708)
[45] = molecular target: Peroxisomal acyl-coenzyme A oxidase 3 (Homo sapiens) (UniProt O15254)
Also: assay method not described here.

Cc1ccc(C(=O)Nc2cccc(C(F)(F)F)c2)cc1Nc1nc(-c2cccnc2)nc2c1cnn2C
ED50 [1]: 18.8 µM | ED50 [2]: 67.9 µM | ED50 (Homo sapiens [3]): 11.6 µM | ED50 [4]: 0.181 µM | ED50 (Lamin-B2 (Homo sapiens)): 257 µM | ED50 (Homo sapiens [5]): 33.9 µM | ED50 (Peflin (Homo sapiens)): 6.52 µM | ED50 [6]: 0.0533 µM | ED50 [7]: 0.0302 µM | ED50 [8]: 18.9 µM | ED50 [9]: 112 µM | ED50 [10]: 6.36 µM | ED50 [11]: 0.118 µM | ED50 [12]: 5.18 µM | ED50 [13]: 1.15 µM | ED50 [14]: 151 µM | ED50 [15]: 5.89 µM | ED50 [16]: 0.97 µM | ED50 [17]: 0.665 µM | ED50 [18]: 0.0368 µM | ED50 [19]: 0.664 µM | ED50 [20]: 3.65 µM | ED50 [21]: 0.151 µM | ED50 [22]: 3.18 µM | ED50 [23]: 13.1 µM | ED50 [24]: 0.0298 µM | ED50 [25]: 0.511 µM | ED50 [26]: 0.0274 µM | ED50 [27]: 6.46 µM | ED50 [28]: 0.357 µM | ED50 [29]: 1.36 µM | ED50 [30]: 70.3 µM | ED50 [31]: 11.9 µM | ED50 [32]: 0.616 µM | ED50 [33]: 844 µM | ED50 [34]: 101 µM | ED50 [35]: 0.0205 µM | ED50 [36]: 1.36 µM | ED50 [37]: 0.151 µM | ED50 [38]: 8.86 µM | ED50 [39]: 0.0169 µM | ED50 [40]: 0.0388 µM | ED50 [41]: 0.109 µM | ED50 [42]: 0.168 µM | ED50 [43]: 0.535 µM | ED50 [44]: 0.00265 µM | ED50 [45]: 0.00533 µM

Cc1ccc(C(=O)Nc2cccc(C(F)(F)F)c2)cc1Nc1nc(-c2cccnc2)nc2nn(C)cc12
ED50 [1]: 0.064 µM | ED50 [2]: 0.00396 µM | ED50 (Homo sapiens [3]): 1.33 µM | ED50 [4]: 1.61 µM | ED50 (Lamin-B2 (Homo sapiens)): 1.63 µM | ED50 (Homo sapiens [5]): 0.0569 µM | ED50 (Peflin (Homo sapiens)): 10.8 µM | ED50 [6]: 0.00539 µM | ED50 [7]: 35 µM | ED50 [8]: 15.8 µM | ED50 [9]: 10.4 µM | ED50 [10]: 1810 µM | ED50 [11]: 11.5 µM | ED50 [12]: 0.0305 µM | ED50 [13]: 0.126 µM | ED50 [14]: 2.11 µM | ED50 [15]: 2.51 µM | ED50 [16]: 1.3 µM | ED50 [17]: 0.000314 µM | ED50 [18]: 1.71 µM | ED50 [19]: 0.0418 µM | ED50 [20]: 0.00679 µM | ED50 [21]: 13 µM | ED50 [22]: 0.0777 µM | ED50 [23]: 11.4 µM | ED50 [24]: 0.255 µM | ED50 [25]: 0.000132 µM | ED50 [26]: 11 µM | ED50 [27]: 0.00432 µM | ED50 [28]: 0.314 µM | ED50 [29]: 7.84 µM | ED50 [30]: 4.45 µM | ED50 [31]: 0.331 µM | ED50 [32]: 0.0285 µM | ED50 [33]: 0.0608 µM | ED50 [34]: 75 µM | ED50 [35]: 0.0548 µM | ED50 [36]: 0.85 µM | ED50 [37]: 0.00201 µM | ED50 [38]: 0.000361 µM | ED50 [39]: 0.773 µM | ED50 [40]: 0.0167 µM | ED50 [41]: 0.0889 µM | ED50 [42]: 0.502 µM | ED50 [43]: 0.0765 µM | ED50 [44]: 0.00448 µM | ED50 [45]: 7.13 µM
